From patent US20050282743A1, “Molecular interactions in cells” (Arbor Vita Corporation, priority 2001, published 2005)
Ends that are not written are not given here. Peptide text beside a SMILES is read from it. * marks the point of attachment. Biotin = O=C1N[C@H]2[C@H](CS[C@H]2CCCCC(=O)*)N1

How the values were obtained:
[1] = target: T1, PDZ protein (GST-PDZ fusion) (Homo sapiens, UniProt Q9UPQ7); experiment: G' assay (10 uM PL peptide), results of TABLE 7 and TABLE 12; type: binding; conditions: PDZ KIAA1095, PDZ Domain 1
T1 construct: made in house; host or cells: E. coli (DH5alpha, BL21 or JM109)
T1 sequence (Q9UPQ7 1-1066): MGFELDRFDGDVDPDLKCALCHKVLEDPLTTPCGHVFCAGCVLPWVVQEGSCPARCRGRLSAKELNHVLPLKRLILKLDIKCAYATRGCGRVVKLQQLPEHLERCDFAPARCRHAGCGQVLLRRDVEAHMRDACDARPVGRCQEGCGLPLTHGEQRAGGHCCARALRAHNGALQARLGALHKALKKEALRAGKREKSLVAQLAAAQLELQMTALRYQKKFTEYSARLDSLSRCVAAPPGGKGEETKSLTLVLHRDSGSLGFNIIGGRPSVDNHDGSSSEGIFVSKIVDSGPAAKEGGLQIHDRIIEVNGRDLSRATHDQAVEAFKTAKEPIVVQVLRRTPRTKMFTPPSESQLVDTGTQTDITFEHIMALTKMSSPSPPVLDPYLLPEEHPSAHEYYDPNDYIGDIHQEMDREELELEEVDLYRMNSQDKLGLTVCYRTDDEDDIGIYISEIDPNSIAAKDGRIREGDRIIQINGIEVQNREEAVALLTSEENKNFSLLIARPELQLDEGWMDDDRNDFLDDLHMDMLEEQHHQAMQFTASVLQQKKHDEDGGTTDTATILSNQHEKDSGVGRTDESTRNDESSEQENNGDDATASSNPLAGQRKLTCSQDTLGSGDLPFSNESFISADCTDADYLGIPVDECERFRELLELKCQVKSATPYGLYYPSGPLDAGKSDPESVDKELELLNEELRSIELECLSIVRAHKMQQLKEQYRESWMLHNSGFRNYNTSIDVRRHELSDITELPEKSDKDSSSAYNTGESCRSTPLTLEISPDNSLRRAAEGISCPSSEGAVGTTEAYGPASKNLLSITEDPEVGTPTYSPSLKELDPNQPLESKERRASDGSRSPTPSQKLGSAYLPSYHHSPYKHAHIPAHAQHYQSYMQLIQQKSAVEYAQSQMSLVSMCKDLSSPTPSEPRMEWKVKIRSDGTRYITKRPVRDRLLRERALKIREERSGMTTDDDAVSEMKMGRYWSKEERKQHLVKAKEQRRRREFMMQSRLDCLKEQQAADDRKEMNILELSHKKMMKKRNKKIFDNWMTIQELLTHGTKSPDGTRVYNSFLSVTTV
In short: (§1)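 Biotin-PL peptide (N-term label), 10 uM vs GST-PDZ; protein 5 ug/ml by default. A450 nm binned: 1 = 0-1, 2 = 1-2, 3 = 2-3, 4 = 3-4, 5 = >4 on >2 repeats, 0 = no binding.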

[2] = target: T2, PDZ protein (GST-PDZ fusion) (Homo sapiens, UniProt P29074); experiment: as above; type: binding; conditions: PDZ PTN-4, PDZ Domain 1
T2 construct: made in house; host or cells: E. coli (DH5alpha, BL21 or JM109)
T2 sequence (P29074 1-926): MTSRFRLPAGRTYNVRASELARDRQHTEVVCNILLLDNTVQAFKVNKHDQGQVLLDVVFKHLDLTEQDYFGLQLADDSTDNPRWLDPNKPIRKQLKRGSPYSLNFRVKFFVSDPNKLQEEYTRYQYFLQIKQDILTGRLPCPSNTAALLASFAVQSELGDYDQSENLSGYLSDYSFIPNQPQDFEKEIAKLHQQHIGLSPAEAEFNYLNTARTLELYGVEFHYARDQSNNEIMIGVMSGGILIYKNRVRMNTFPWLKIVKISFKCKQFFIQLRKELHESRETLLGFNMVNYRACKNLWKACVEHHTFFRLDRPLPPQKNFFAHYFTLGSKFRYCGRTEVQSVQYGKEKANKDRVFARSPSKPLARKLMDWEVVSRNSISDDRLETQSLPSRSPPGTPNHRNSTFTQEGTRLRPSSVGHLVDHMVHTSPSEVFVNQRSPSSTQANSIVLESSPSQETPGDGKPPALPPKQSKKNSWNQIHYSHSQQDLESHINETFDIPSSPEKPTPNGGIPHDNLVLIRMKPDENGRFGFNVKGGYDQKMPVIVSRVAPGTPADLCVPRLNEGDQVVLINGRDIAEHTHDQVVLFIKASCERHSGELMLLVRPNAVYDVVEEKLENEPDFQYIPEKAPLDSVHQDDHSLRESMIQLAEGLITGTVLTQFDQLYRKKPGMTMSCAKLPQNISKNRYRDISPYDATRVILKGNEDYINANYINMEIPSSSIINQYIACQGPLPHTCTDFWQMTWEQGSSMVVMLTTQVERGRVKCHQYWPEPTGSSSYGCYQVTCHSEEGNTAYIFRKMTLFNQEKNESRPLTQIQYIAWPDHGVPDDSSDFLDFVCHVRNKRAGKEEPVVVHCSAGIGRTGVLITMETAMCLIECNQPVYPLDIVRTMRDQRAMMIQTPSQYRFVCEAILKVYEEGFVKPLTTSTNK
In short: as §1

Compound	Classification [1]	Classification [2]
CC[C@H](C)[C@H](NC(=O)CNC(=O)[C@H](CO)NC(=O)[C@H](Cc1ccccc1)NC(=O)[C@@H](NC(=O)[C@H](CS)NC(=O)CNC(=O)CNC(=O)[C@H](C)NC(=O)[C@@H]1CCCN1C(=O)[C@@H](NC(=O)[C@@H]1CCCN1C(=O)CCCC[C@@H]1SC[C@@H]2NC(=O)N[C@@H]21)[C@@H](C)CC)[C@@H](C)O)C(=O)N[C@@H](Cc1ccccc1)C(=O)N1CCC[C@H]1C(=O)N[C@H](C(=O)N[C@@H](CC(C)C)C(=O)N[C@H](C(=O)N[C@@H](CO)C(=O)N1CCC[C@H]1C(=O)N[C@@H](CC(C)C)C(=O)O)[C@@H](C)O)[C@@H](C)O [KIA 1481] (Biotin-PIPAGGCTFSGIFPTLTSPL-OH; C-terminus assumed)	1 (A450 nm 0-1)	
TQGFPGPATWRRISSLESEV	1 (A450 nm 0-1)	2 (A450 nm 1-2)
CSCC[C@H](NC(=O)[C@H](C)NC(=O)[C@H](CCCNC(=N)N)NC(=O)CNC(=O)[C@@H](NC(=O)[C@H](Cc1c[nH]c2ccccc12)NC(=O)[C@H](CCCNC(=N)N)NC(=O)CNC(=O)CCCC[C@@H]1SC[C@@H]2NC(=O)N[C@@H]21)[C@@H](C)O)C(=O)N[C@@H](CO)C(=O)N[C@@H](C)C(=O)N[C@@H](Cc1c[nH]c2ccccc12)C(=O)N[C@@H](CCCCN)C(=O)N1CCC[C@H]1C(=O)N[C@H](C(=O)N[C@@H](CCCNC(=N)N)C(=O)N[C@@H](CCCNC(=N)N)C(=O)N[C@@H](CCC(=O)O)C(=O)N[C@H](C(=O)N[C@@H](CCC(=O)O)C(=O)N[C@H](C(=O)O)C(C)C)[C@@H](C)O)[C@@H](C)O [HPV E6 #35 (modified)] (Biotin-GRWTGRAMSAWKPTRRETEV-OH; C-terminus assumed)	4 (A450 nm 3-4)	4 (A450 nm 3-4)
CC(C)C[C@H](NC(=O)[C@H](CCCNC(=N)N)NC(=O)CNC(=O)CNC(=O)[C@H](CCCNC(=N)N)NC(=O)[C@H](C)NC(=O)[C@@H]1CCCN1C(=O)[C@H](CCCNC(=N)N)NC(=O)CNC(=O)CNC(=O)[C@@H](NC(=O)[C@H](C)NC(=O)CCCC[C@@H]1SC[C@@H]2NC(=O)N[C@@H]21)C(C)C)C(=O)N[C@@H](CCC(N)=O)C(=O)NCC(=O)N[C@@H](CCCNC(=N)N)C(=O)N[C@@H](CCCNC(=N)N)C(=O)N[C@@H](CCC(N)=O)C(=O)N[C@H](C(=O)N[C@@H](CCC(N)=O)C(=O)N[C@H](C(=O)O)C(C)C)[C@@H](C)O [HPV E6 58 (modified)] (Biotin-AVGGRPARGGRLQGRRQTQV-OH; C-terminus assumed)	1 (A450 nm 0-1)	
QATSRNGHSARQHVVADTEL (Biotin-QATSRNGHSARQHVVADTEL) [CD34]		1 (A450 nm 0-1)
CC(C)C[C@H](NC(=O)[C@H](C)NC(=O)[C@@H](NC(=O)[C@H](CCC(=O)O)NC(=O)[C@H](CCCNC(=N)N)NC(=O)[C@H](CCCNC(=N)N)NC(=O)CNC(=O)[C@H](CCC(N)=O)NC(=O)[C@H](CC(C)C)NC(=O)[C@H](CCCNC(=N)N)NC(=O)CNC(=O)CNC(=O)[C@H](CCCNC(=N)N)NC(=O)[C@H](C)NC(=O)[C@H](CO)NC(=O)[C@H](CCCNC(=N)N)NC(=O)CNC(=O)CNC(=O)[C@H](C)NC(=O)[C@H](C)NC(=O)CCCC[C@@H]1SC[C@@H]2NC(=O)N[C@@H]21)[C@@H](C)O)C(=O)O [HPV E6 33 (modified)] (Biotin-AAGGRSARGGRLQGRRETAL-OH; C-terminus assumed)	5 (A450 nm of 4 more than 2× repeated)	1 (A450 nm 0-1)
CC[C@H](C)[C@H](NC(=O)[C@H](CCC(N)=O)NC(=O)CCCC[C@@H]1SC[C@@H]2NC(=O)N[C@@H]21)C(=O)N[C@@H](CO)C(=O)N1CCC[C@H]1C(=O)NCC(=O)NCC(=O)N[C@@H](CC(C)C)C(=O)N[C@@H](CCC(=O)O)C(=O)N1CCC[C@H]1C(=O)N1CCC[C@H]1C(=O)N[C@@H](CO)C(=O)N[C@@H](CCC(=O)O)C(=O)N[C@@H](CCCCN)C(=O)N[C@@H](Cc1c[nH]cn1)C(=O)N[C@@H](Cc1ccccc1)C(=O)N[C@@H](CCCNC(=N)N)C(=O)N[C@@H](CCC(=O)O)C(=O)N[C@H](C(=O)N[C@@H](CCC(=O)O)C(=O)N[C@H](C(=O)O)C(C)C)[C@@H](C)O [Tax]		2 (A450 nm 1-2)
